Experimental findings from ChEMBL document CHEMBL3994622, “Design and synthesis of new RAF kinase-inhibiting antiproliferative quinoline derivatives. Part 2: Diarylurea derivatives” (Eur J Med Chem, 2017) are described below.

One experiment deals with MDA-MB-468. Description: Growth inhibition of human MDA-MB-468 cells assessed as cell growth at 0.3 uM incubated for 48 hrs by sulforhodamine B assay relative to control. It is filed as functional. The following applies: MDA-MB-468, 48 h, read-out: Activity.
Experiment [1] relates to EKVX. Briefly: Growth inhibition of human EKVX cells assessed as cell growth at 0.003 uM incubated for 48 hrs by sulforhodamine B assay relative to control. It is filed as functional. To be noted: read-out: Activity.
Experiment [2] concerns the target Vascular endothelial growth factor receptor 2 (Homo sapiens) (UniProt P35968). Briefly: Inhibition of human KDR at 10 uM using poly[Glu:Tyr] (4:1) as substrate in presence of [33P]ATP by Hotspot assay relative to control.
For experiment [3], the system named is EKVX. Description: Growth inhibition of human EKVX cells assessed as cell growth at 3 uM incubated for 48 hrs by sulforhodamine B assay relative to control. It is filed as functional. The following applies: read-out: Activity.
Experiment [4] concerns EKVX. Briefly: Growth inhibition of human EKVX cells assessed as cell growth at 30 uM incubated for 48 hrs by sulforhodamine B assay relative to control. It is filed as functional. To be noted: read-out: Activity. On the technique in general: Sulforhodamine B stains cellular protein and so reports cell mass.
The target in experiment [5] is Dual specificity mitogen-activated protein kinase kinase 1 (Homo sapiens) (UniProt Q02750). Briefly: Inhibition of human MEK1 at 10 uM using ERK2 as substrate in presence of [33P]ATP by Hotspot assay relative to control.
In experiment [6] the test system is EKVX. Briefly: Growth inhibition of human EKVX cells assessed as cell growth at 0.5 uM incubated for 48 hrs by sulforhodamine B assay relative to control. The experiment is classed as functional. The following applies: read-out: Activity.
The test system of the next experiment is CAKI-1. Description: Growth inhibition of human Caki1 cells assessed as cell growth at 50 uM incubated for 48 hrs by sulforhodamine B assay relative to control. It is filed as functional. To be noted: CAKI-1, 48 h, read-out: Activity.
The next experiment has as its system SNB-75. Briefly: Growth inhibition of human SNB75 cells assessed as cell growth at 50 uM incubated for 48 hrs by sulforhodamine B assay relative to control. The experiment is classed as functional. The following applies: SNB-75, 48 h, read-out: Activity.
Experiment [7] relates to EKVX. Briefly: Growth inhibition of human EKVX cells assessed as cell growth at 5 uM incubated for 48 hrs by sulforhodamine B assay relative to control. To be noted: read-out: Activity. It is filed as functional.
For the next experiment, the system named is Malme-3M. Description: Growth inhibition of human MALME-3M cells assessed as cell growth at 5 uM incubated for 48 hrs by sulforhodamine B assay relative to control. It is filed as functional. To be noted: read-out: Activity.
Experiment [8] relates to NCI-H522. Briefly: Growth inhibition of human NCI-H522 cells assessed as cell growth at 50 uM incubated for 48 hrs by sulforhodamine B assay relative to control. The experiment is classed as functional. To be noted: NCI-H522, 48 h, read-out: Activity.
For experiment [9], the system named is BT-549. Description: Growth inhibition of human BT549 cells assessed as cell growth at 50 uM incubated for 48 hrs by sulforhodamine B assay relative to control. The experiment is classed as functional. The following applies: BT-549, 48 h, read-out: Activity.
Another experiment relates to OVCAR-8. Briefly: Growth inhibition of human OVCAR8 cells assessed as cell growth at 50 uM incubated for 48 hrs by sulforhodamine B assay relative to control. It is filed as functional. To be noted: OVCAR-8, 48 h, read-out: Activity.
For another experiment, the system named is UO-31. Description: Growth inhibition of human UO31 cells assessed as cell growth at 50 uM incubated for 48 hrs by sulforhodamine B assay relative to control. It is filed as functional. The following applies: UO-31, 48 h, read-out: Activity.
Another experiment concerns T47D. Briefly: Growth inhibition of human T47D cells assessed as cell growth at 5 uM incubated for 48 hrs by sulforhodamine B assay relative to control. It is filed as functional. To be noted: read-out: Activity.
Experiment [10] concerns NCI-H522. Description: Growth inhibition of human NCI-H522 cells assessed as cell growth at 5 uM incubated for 48 hrs by sulforhodamine B assay relative to control. The experiment is classed as functional. To be noted: NCI-H522, 48 h, read-out: Activity.
The subject of another experiment is IGROV-1. Briefly: Growth inhibition of human IGROV1 cells assessed as cell growth at 0.5 uM incubated for 48 hrs by sulforhodamine B assay relative to control. It is filed as functional. To be noted: IGROV-1, 48 h, read-out: Activity.
The next experiment concerns HOP-62. Briefly: Growth inhibition of human HOP62 cells assessed as cell growth at 0.05 uM incubated for 48 hrs by sulforhodamine B assay relative to control. The experiment is classed as functional. The following applies: HOP-62, 48 h, read-out: Activity.
Another experiment relates to DU-145. Briefly: Growth inhibition of human DU145 cells assessed as cell growth at 0.005 uM incubated for 48 hrs by sulforhodamine B assay relative to control. The experiment is classed as functional. The following applies: DU-145, 48 h, read-out: Activity.
In a further experiment the test system is MDA-MB-231. Description: Growth inhibition of human MDA-MB-231 cells assessed as cell growth at 0.5 uM incubated for 48 hrs by sulforhodamine B assay relative to control. To be noted: MDA-MB-231, 48 h, read-out: Activity. It is filed as functional.
For another experiment, the system named is Hs-578T. Description: Growth inhibition of human Hs 578T cells assessed as cell growth at 0.5 uM incubated for 48 hrs by sulforhodamine B assay relative to control. It is filed as functional. To be noted: read-out: Activity.
The next experiment relates to ACHN. Briefly: Growth inhibition of human ACHN cells assessed as cell growth at 0.05 uM incubated for 48 hrs by sulforhodamine B assay relative to control. The experiment is classed as functional. To be noted: read-out: Activity.
The test system of experiment [11] is BT-549. Description: Growth inhibition of human BT549 cells assessed as cell growth at 0.5 uM incubated for 48 hrs by sulforhodamine B assay relative to control. It is filed as functional. The following applies: BT-549, 48 h, read-out: Activity.
The next experiment concerns 786-0. Description: Growth inhibition of human 786-0 cells assessed as cell growth at 0.5 uM incubated for 48 hrs by sulforhodamine B assay relative to control. The experiment is classed as functional. The following applies: 786-0, 48 h, read-out: Activity.
In experiment [12] the test system is RXF 393. Description: Growth inhibition of human RXF393 cells assessed as cell growth at 0.05 uM incubated for 48 hrs by sulforhodamine B assay relative to control. The following applies: RXF 393, 48 h, read-out: Activity. The experiment is classed as functional.
The test system of experiment [13] is NCI-H522. Description: Growth inhibition of human NCI-H522 cells assessed as cell growth at 0.5 uM incubated for 48 hrs by sulforhodamine B assay relative to control. The experiment is classed as functional. To be noted: NCI-H522, 48 h, read-out: Activity.
For experiment [14], the system named is MDA-MB-435. Description: Growth inhibition of human MDA-MB-435 cells assessed as cell growth at 0.005 uM incubated for 48 hrs by sulforhodamine B assay relative to control. To be noted: MDA-MB-435, 48 h, read-out: Activity. The experiment is classed as functional.
The next experiment deals with KM12. Briefly: Growth inhibition of human KM12 cells assessed as cell growth at 0.05 uM incubated for 48 hrs by sulforhodamine B assay relative to control. It is filed as functional. To be noted: KM12, 48 h, read-out: Activity.
For the next experiment, the system named is OVCAR-5. Briefly: Growth inhibition of human OVCAR5 cells assessed as cell growth at 5 uM incubated for 48 hrs by sulforhodamine B assay relative to control. To be noted: OVCAR-5, 48 h, read-out: Activity. The experiment is classed as functional.
Experiment [15] relates to MDA-MB-435. Briefly: Growth inhibition of human MDA-MB-435 cells assessed as cell growth at 0.5 uM incubated for 48 hrs by sulforhodamine B assay relative to control. To be noted: MDA-MB-435, 48 h, read-out: Activity. The experiment is classed as functional.
For experiment [16], the system named is HT-29. Description: Growth inhibition of human HT-29 cells assessed as cell growth at 0.5 uM incubated for 48 hrs by sulforhodamine B assay relative to control. To be noted: HT-29, 48 h, read-out: Activity. The experiment is classed as functional.
Another experiment deals with HCT-15. Description: Growth inhibition of human HCT15 cells assessed as cell growth at 0.005 uM incubated for 48 hrs by sulforhodamine B assay relative to control. To be noted: HCT-15, 48 h, read-out: Activity. It is filed as functional.
Experiment [17] concerns HT-29. Briefly: Growth inhibition of human HT-29 cells assessed as cell growth at 0.005 uM incubated for 48 hrs by sulforhodamine B assay relative to control. It is filed as functional. To be noted: HT-29, 48 h, read-out: Activity.
Experiment [18] deals with RXF 393. Description: Growth inhibition of human RXF393 cells assessed as cell growth at 0.5 uM incubated for 48 hrs by sulforhodamine B assay relative to control. It is filed as functional. The following applies: RXF 393, 48 h, read-out: Activity.

The structures appear in SMILES notation.

For orientation: inhibition means the relative decrease from the control value, in per cent.

Vascular endothelial growth factor receptor 2 (Homo sapiens), sequence (P35968 whole entry): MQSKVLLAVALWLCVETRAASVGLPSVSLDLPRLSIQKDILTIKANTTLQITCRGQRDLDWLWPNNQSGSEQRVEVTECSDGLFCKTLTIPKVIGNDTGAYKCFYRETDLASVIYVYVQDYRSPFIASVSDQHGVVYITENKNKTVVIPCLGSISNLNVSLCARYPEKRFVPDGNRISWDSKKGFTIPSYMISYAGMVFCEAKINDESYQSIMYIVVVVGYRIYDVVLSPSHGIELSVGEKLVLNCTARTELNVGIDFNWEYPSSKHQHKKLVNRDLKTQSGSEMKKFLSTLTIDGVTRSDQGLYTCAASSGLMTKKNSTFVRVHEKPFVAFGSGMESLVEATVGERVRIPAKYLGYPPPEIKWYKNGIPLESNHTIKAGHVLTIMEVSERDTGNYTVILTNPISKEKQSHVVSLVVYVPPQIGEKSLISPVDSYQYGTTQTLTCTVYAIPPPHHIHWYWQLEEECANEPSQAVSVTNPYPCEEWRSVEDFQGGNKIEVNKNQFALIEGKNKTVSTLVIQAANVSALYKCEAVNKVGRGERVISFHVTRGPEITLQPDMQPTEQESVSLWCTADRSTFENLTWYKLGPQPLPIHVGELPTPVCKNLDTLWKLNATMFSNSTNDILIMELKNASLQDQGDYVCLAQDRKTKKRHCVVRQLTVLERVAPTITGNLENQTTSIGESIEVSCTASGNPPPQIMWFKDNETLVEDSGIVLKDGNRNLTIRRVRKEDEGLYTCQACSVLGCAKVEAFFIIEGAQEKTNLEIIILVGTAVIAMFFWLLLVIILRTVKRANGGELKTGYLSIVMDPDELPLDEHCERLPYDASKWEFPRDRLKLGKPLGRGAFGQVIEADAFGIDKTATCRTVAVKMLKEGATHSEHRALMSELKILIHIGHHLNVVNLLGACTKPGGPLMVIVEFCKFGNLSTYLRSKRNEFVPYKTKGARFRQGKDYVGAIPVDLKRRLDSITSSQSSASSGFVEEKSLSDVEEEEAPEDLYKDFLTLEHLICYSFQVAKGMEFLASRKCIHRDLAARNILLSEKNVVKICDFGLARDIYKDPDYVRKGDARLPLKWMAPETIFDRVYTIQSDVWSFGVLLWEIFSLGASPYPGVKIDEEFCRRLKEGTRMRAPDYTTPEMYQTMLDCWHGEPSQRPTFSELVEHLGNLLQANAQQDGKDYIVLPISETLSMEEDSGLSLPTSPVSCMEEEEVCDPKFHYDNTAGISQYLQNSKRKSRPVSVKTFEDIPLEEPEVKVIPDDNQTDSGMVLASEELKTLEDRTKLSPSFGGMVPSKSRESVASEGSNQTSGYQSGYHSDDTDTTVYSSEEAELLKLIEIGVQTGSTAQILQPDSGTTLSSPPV
Dual specificity mitogen-activated protein kinase kinase 1 (Homo sapiens), sequence (Q02750 whole entry): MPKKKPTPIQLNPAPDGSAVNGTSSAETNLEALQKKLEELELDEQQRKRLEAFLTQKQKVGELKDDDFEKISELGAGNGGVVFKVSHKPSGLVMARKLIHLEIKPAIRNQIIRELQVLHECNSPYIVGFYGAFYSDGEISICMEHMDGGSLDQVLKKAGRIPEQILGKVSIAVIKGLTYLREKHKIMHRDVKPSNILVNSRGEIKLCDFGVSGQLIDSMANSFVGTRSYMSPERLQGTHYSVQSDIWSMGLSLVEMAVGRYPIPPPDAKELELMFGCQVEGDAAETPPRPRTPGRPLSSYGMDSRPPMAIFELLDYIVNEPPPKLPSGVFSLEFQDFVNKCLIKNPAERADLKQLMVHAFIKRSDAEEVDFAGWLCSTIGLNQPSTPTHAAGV

Take `Cc1nc2cc(O)c(O)cc2cc1Oc1ccc(NC(=O)Nc2ccc(Cl)c(Cl)c2)cc1`: the growth at 0.3 µM with MDA-MB-468 was 99%.
In the case of `COc1cc2cc(Oc3ccc(NC(=O)Nc4ccc(Cl)c(C(F)(F)F)c4)cc3)c(C)nc2cc1OC`, the growth at 0.003 µM in the experiment with EKVX [1] came out at 103%. The results for the inhibition in experiment [2] and in experiment [5] were 0.83% and -0.258%, respectively. Besides, the growth at 3 µM in the experiment with EKVX [3] came to 5%. For the same compound, the growth at 30 µM with EKVX [4] was -70%.
As for `COc1cc2cc(Oc3ccc(NC(=O)Nc4cccc(C(F)(F)F)c4)cc3)c(C)nc2cc1OC`, the growth at 0.5 µM in the experiment with EKVX [6] is 89%; in the experiment with IGROV-1, 113%; in the experiment on MDA-MB-231, 81%; in the experiment with Hs-578T, 99%; with BT-549 [11], 86%; with 786-0, 95%. In addition, the growth at 0.5 µM with NCI-H522 [13] was 90%; in the experiment on MDA-MB-435 [15] it was 89%; with HT-29 [16], 112%; in the experiment with RXF 393 [18], 103%. Also, the growth at 50 µM in the experiment on CAKI-1 is -51%; with SNB-75, -46%; in the experiment with NCI-H522 [8], -61%; in the experiment with BT-549 [9], -69%; with OVCAR-8 it was -90%; in the experiment on UO-31, -24%. In addition, the growth at 5 µM was 6% with EKVX [7]; -1% in the experiment on Malme-3M; 7% in the experiment on T47D; -4% in the experiment on NCI-H522 [10]; 31% with OVCAR-5. For the same compound, the growth at 0.05 µM came out at 95% in the experiment with HOP-62, 99% in the experiment with ACHN, 105% in the experiment on RXF 393 [12] and 89% with KM12. The growth at 0.005 µM amounted to 103% in the experiment with DU-145, 95% in the experiment with MDA-MB-435 [14], 96% in the experiment on HCT-15 and 100% in the experiment on HT-29 [17].
